# Assay results from ChEMBL document CHEMBL1201861, “Genomics of Drug Sensitity in Cancer screening data, Wellcome Trust Sanger Institute”.
# Key:
# Assay in all cases: cells
# [1] = tested on: no-11; type: functional, cell-based, Homo sapiens; settings: Homo sapiens;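 further: growth inhibition of human NO-11 cells, read out with a cell viability assay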
# Description: SANGER: Inhibition of human no-11 cell growth in a cell viability assay.
# [2] = tested on: GI-ME-N; type: functional, cell-based, Homo sapiens; settings: Homo sapiens, GI-ME-N;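 further: growth inhibition of human GI-ME-N cells, read out with a cell viability assay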
# Description: SANGER: Inhibition of human GI-ME-N cell growth in a cell viability assay.
# [3] = tested on: VA-ES-BJ; type: functional, cell-based, Homo sapiens; settings: Homo sapiens, VA-ES-BJ;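 further: growth inhibition of the VA-ES-BJ cell line, read out by a cell viability assay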
# Description: SANGER: Inhibition of human VA-ES-BJ cell growth in a cell viability assay.
# [4] = tested on: DMS-114; type: functional, cell-based, Homo sapiens; settings: Homo sapiens, DMS-114
# [5] = tested on: TE-10; type: functional, cell-based, Homo sapiens; settings: Homo sapiens, TE-10;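 further: growth inhibition of TE-10 cells, measured by a cell viability assay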
# Description: SANGER: Inhibition of human TE-10 cell growth in a cell viability assay.
# [6] = tested on: ALL-PO; type: functional, cell-based, Homo sapiens; settings: Homo sapiens, ALL-PO;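 further: growth inhibition of ALL-PO cells, read out by a cell viability assay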
# Description: SANGER: Inhibition of human ALL-PO cell growth in a cell viability assay.
# [7] = tested on: LB771-HNC; type: functional, cell-based; settings: Homo sapiens;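 further: growth inhibition of LB771-HNC human cells, read out with a cell viability assay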
# Description: SANGER: Inhibition of human LB771-HNC cell growth in a cell viability assay.
# [8] = tested on: KLE; type: functional, cell-based; settings: Homo sapiens;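 further: growth inhibition of human KLE cells, read out with a cell viability assay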
# Description: SANGER: Inhibition of human KLE cell growth in a cell viability assay.
# [9] = tested on: LS-1034; type: functional, cell-based, Homo sapiens; settings: Homo sapiens, LS-1034
# Description: SANGER: Inhibition of human LS-1034 cell growth in a cell viability assay.
# [10] = tested on: TGBC24TKB; type: functional, cell-based; settings: Homo sapiens;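 further: growth inhibition of human TGBC24TKB cells, read out with a cell viability assay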
# Description: SANGER: Inhibition of human TGBC24TKB cell growth in a cell viability assay.
# [11] = tested on: RXF 393; type: functional, cell-based, Homo sapiens; settings: Homo sapiens, RXF 393;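 further: growth inhibition of human RXF 393 cells, read out with a cell viability assay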
# Description: SANGER: Inhibition of human RXF393 cell growth in a cell viability assay.
# [12] = tested on: GT3TKB; type: functional, cell-based, Homo sapiens; settings: Homo sapiens, GT3TKB;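 further: growth inhibition of the cell line, read out with a cell viability assay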
# Description: SANGER: Inhibition of human GT3TKB cell growth in a cell viability assay.
# [13] = tested on: Lu-65; type: functional, cell-based, Homo sapiens; settings: Homo sapiens, Lu-65;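 further: growth inhibition of Lu-65 cancer cells, read out by a cell viability assay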
# Description: SANGER: Inhibition of human LU-65 cell growth in a cell viability assay.
# [14] = tested on: BB49-HNC; type: functional, cell-based, Homo sapiens; settings: Homo sapiens, BB49-HNC;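 further: cell viability assay read-out, reported as inhibition of BB49-HNC cell growth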
# Description: SANGER: Inhibition of human BB49-HNC cell growth in a cell viability assay.
# [15] = tested on: KGN; type: functional, cell-based, Homo sapiens; settings: Homo sapiens, KGN;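 further: growth inhibition of KGN cells, read out with a cell viability assay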
# Description: SANGER: Inhibition of human KGN cell growth in a cell viability assay.
# [16] = tested on: GI-1; type: functional, cell-based, Homo sapiens; settings: Homo sapiens, GI-1;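 further: growth inhibition of human GI-1 cells, measured with a cell viability readout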
# Description: SANGER: Inhibition of human GI-1 cell growth in a cell viability assay.
# [17] = tested on: HL-60; type: functional, cell-based, Homo sapiens; settings: Homo sapiens, HL-60;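 further: growth inhibition of human HL-60 cells, read out with a cell viability assay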
# Description: SANGER: Inhibition of human HL-60 cell growth in a cell viability assay.
# [18] = tested on: GOTO; type: functional, cell-based, Homo sapiens; settings: Homo sapiens, GOTO;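 further: growth inhibition of GOTO cells, read out by a cell viability assay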
# Description: SANGER: Inhibition of human GOTO cell growth in a cell viability assay.
# [19] = tested on: KS-1; type: functional, cell-based; settings: Homo sapiens;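 further: growth inhibition of KS-1 cells, read out with a cell viability assay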
# Description: SANGER: Inhibition of human KS-1 cell growth in a cell viability assay.
# [20] = tested on: KARPAS-45; type: functional, cell-based, Homo sapiens; settings: Homo sapiens, KARPAS-45;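 further: inhibition of cell line growth, read out through a viability assay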
# Description: SANGER: Inhibition of human KARPAS-45 cell growth in a cell viability assay.
# [21] = tested on: SNU-C2B; type: functional, cell-based; settings: Homo sapiens;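 further: cell viability readout used to measure compound-driven suppression of SNU-C2B cell proliferation, IC50 marking half-maximal growth inhibition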
# Description: SANGER: Inhibition of human SNU-C2B cell growth in a cell viability assay.
# [22] = tested on: HOP-62; type: functional, cell-based, Homo sapiens; settings: Homo sapiens, HOP-62;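 further: cell growth inhibition determined with a viability assay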
# Description: SANGER: Inhibition of human HOP-62 cell growth in a cell viability assay.
# [23] = tested on: COLO-684; type: functional, cell-based, Homo sapiens; settings: Homo sapiens, COLO-684
# Description: SANGER: Inhibition of human COLO-684 cell growth in a cell viability assay.
# [24] = tested on: LAN-6; type: functional, cell-based, Homo sapiens; settings: Homo sapiens, LAN-6;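 further: growth inhibition of LAN-6 cells, determined with a cell viability assay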
# Description: SANGER: Inhibition of human LAN-6 cell growth in a cell viability assay.
# [25] = tested on: OVCAR-4; type: functional, cell-based, Homo sapiens; settings: Homo sapiens, OVCAR-4;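 further: growth inhibition of human OVCAR-4 cells, measured with a cell viability assay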
# Description: SANGER: Inhibition of human OVCAR-4 cell growth in a cell viability assay.
# [26] = tested on: BE-13; type: functional, cell-based, Homo sapiens; settings: Homo sapiens, BE-13;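 further: growth inhibition of human BE-13 cells, measured with a cell viability assay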
# Description: SANGER: Inhibition of human BE-13 cell growth in a cell viability assay.
# [27] = tested on: NCI-H1395; type: functional, cell-based, Homo sapiens; settings: Homo sapiens, NCI-H1395;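 further: cell viability assay read-out quantifying reduced proliferation of human NCI-H1395 cells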
# Description: SANGER: Inhibition of human NCI-H1395 cell growth in a cell viability assay.
# [28] = tested on: EW-11; type: functional, cell-based, Homo sapiens; settings: Homo sapiens, EW-11;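 further: growth inhibition of human EW-11 cells, measured with a cell viability assay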
# Description: SANGER: Inhibition of human EW-11 cell growth in a cell viability assay.
# [29] = tested on: EW-16; type: functional, cell-based, Homo sapiens; settings: Homo sapiens, EW-16;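 further: growth inhibition of human EW-16 cells, read out as cell viability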
# Description: SANGER: Inhibition of human EW-16 cell growth in a cell viability assay.
# [30] = tested on: MMAC-SF; type: functional, cell-based; settings: Homo sapiens;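 further: growth inhibition of human MMAC-SF cells, read out with a cell viability assay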
# Description: SANGER: Inhibition of human MMAC-SF cell growth in a cell viability assay.
# [31] = tested on: KE-37; type: functional, cell-based, Homo sapiens; settings: Homo sapiens, KE-37;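 further: growth inhibition of KE-37 cells, read out with a cell viability assay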
# Description: SANGER: Inhibition of human KE-37 cell growth in a cell viability assay.
# [32] = tested on: NB5; type: functional, cell-based, Homo sapiens; settings: Homo sapiens, NB5;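 further: growth inhibition of NB5 cells, read out as cell viability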
# Description: SANGER: Inhibition of human NB5 cell growth in a cell viability assay.
# [33] = tested on: NCI-H747; type: functional, cell-based, Homo sapiens; settings: Homo sapiens, NCI-H747;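 further: growth inhibition of human NCI-H747 cells, read out by a cell viability assay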
# Description: SANGER: Inhibition of human NCI-H747 cell growth in a cell viability assay.
# [34] = tested on: COR-L88; type: functional, cell-based, Homo sapiens; settings: Homo sapiens, COR-L88;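 further: growth inhibition of COR-L88 cells, read out with a cell viability assay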
# Description: SANGER: Inhibition of human COR-L88 cell growth in a cell viability assay.
# [35] = tested on: SF-126; type: functional, cell-based, Homo sapiens; settings: Homo sapiens, SF-126;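 further: growth inhibition of human SF126 cells, read out with a cell viability assay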
# Description: SANGER: Inhibition of human SF126 cell growth in a cell viability assay.
# [36] = tested on: SK-MEL-1; type: functional, cell-based, Homo sapiens; settings: Homo sapiens, SK-MEL-1;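 further: growth inhibition of human SK-MEL-1 cells, read out by a cell viability assay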
# Description: SANGER: Inhibition of human SK-MEL-1 cell growth in a cell viability assay.
# [37] = tested on: OCUB-M; type: functional, cell-based; settings: Homo sapiens;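 further: growth inhibition of the cancer cell line, read out through a cell viability assay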
# Description: SANGER: Inhibition of human OCUB-M cell growth in a cell viability assay.
# [38] = tested on: NCI-H2126; type: functional, cell-based, Homo sapiens; settings: Homo sapiens, NCI-H2126;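 further: growth inhibition of the cancer cell line, determined with a cell viability readout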
# Description: SANGER: Inhibition of human NCI-H2126 cell growth in a cell viability assay.
# [39] = tested on: C2BBe1; type: functional, cell-based, Homo sapiens; settings: Homo sapiens, C2BBe1;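 further: growth inhibition of C2BBe1 cells, read out through a viability assay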
# Description: SANGER: Inhibition of human C2BBe1 cell growth in a cell viability assay.
# [40] = tested on: MPP-89; type: functional, cell-based, Homo sapiens; settings: Homo sapiens, MPP-89;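 further: growth inhibition of human MPP-89 cells, read out with a cell viability assay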
# Description: SANGER: Inhibition of human MPP-89 cell growth in a cell viability assay.
# [41] = tested on: DJM-1; type: functional, cell-based, Homo sapiens; settings: Homo sapiens, DJM-1;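 further: growth inhibition of human DJM-1 cells, read out by a cell viability assay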
# Description: SANGER: Inhibition of human DJM-1 cell growth in a cell viability assay.
# [42] = tested on: MOLT-16; type: functional, cell-based, Homo sapiens; settings: Homo sapiens, MOLT-16;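 further: growth inhibition of human MOLT-16 cells, read out with a cell viability assay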
# Description: SANGER: Inhibition of human MOLT-16 cell growth in a cell viability assay.
# [43] = tested on: SH-4; type: functional, cell-based; settings: Homo sapiens;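 further: growth inhibition of SH-4 cells, read out with a cell viability assay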
# Description: SANGER: Inhibition of human SH-4 cell growth in a cell viability assay.
# [44] = tested on: NCI-H1304; type: functional, cell-based, Homo sapiens; settings: Homo sapiens, NCI-H1304;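 further: growth inhibition of the cancer cell line, measured in a cell viability assay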
# Description: SANGER: Inhibition of human NCI-H1304 cell growth in a cell viability assay.
# [45] = tested on: RCC10RGB; type: functional, cell-based, Homo sapiens; settings: Homo sapiens, RCC10RGB;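 further: growth inhibition of human RCC10RGB cells, read out by a cell viability assay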
# Description: SANGER: Inhibition of human RCC10RGB cell growth in a cell viability assay.
# [46] = tested on: GB-1; type: functional, cell-based, Homo sapiens; settings: Homo sapiens, GB-1;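 further: growth of GB-1 cells judged by a viability assay, IC50 marks the concentration inhibiting growth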
# Description: SANGER: Inhibition of human GB-1 cell growth in a cell viability assay.
# [47] = tested on: NB6; type: functional, cell-based, Homo sapiens; settings: Homo sapiens, NB6;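 further: growth inhibition of NB6 cells, read out by a cell viability assay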
# Description: SANGER: Inhibition of human NB6 cell growth in a cell viability assay.
# [48] = tested on: GR-ST; type: functional, cell-based, Homo sapiens; settings: Homo sapiens, GR-ST
# Description: SANGER: Inhibition of human GR-ST cell growth in a cell viability assay.
# [49] = tested on: NKM-1; type: functional, cell-based, Homo sapiens; settings: Homo sapiens, NKM-1;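 further: growth inhibition of NKM-1 cells, read out with a cell viability assay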
# Description: SANGER: Inhibition of human NKM-1 cell growth in a cell viability assay.
# [50] = tested on: MZ2-MEL; type: functional, cell-based, Homo sapiens; settings: Homo sapiens, MZ2-MEL;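 further: growth inhibition of MZ2-MEL cells read out with a cell viability assay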
# Description: SANGER: Inhibition of human MZ2-MEL cell growth in a cell viability assay.
# [51] = tested on: MC116; type: functional, cell-based, Homo sapiens; settings: Homo sapiens, MC116;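 further: growth inhibition of MC116 cells, read out with a cell viability assay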
# Description: SANGER: Inhibition of human MC116 cell growth in a cell viability assay.
compound,measurement,setting,value
C/C(=C\c1csc(C)n1)[C@@H]1C[C@@H]2O[C@]2(C)CCC[C@H](C)[C@H](O)[C@@H](C)C(=O)C(C)(C)[C@@H](O)CC(=O)O1 [PATUPILONE],IC50,[1],> 32 nM
same,IC50,[2],6.08 nM
same,IC50,[3],4.35 nM
same,IC50,[4],> 32 nM
same,IC50,[5],0.719 nM
same,IC50,[6],1.47 nM
same,IC50,[7],8.46 nM
same,IC50,[8],> 32 nM
same,IC50,[9],0.912 nM
same,IC50,[10],2.75 nM
same,IC50,[11],3.41 nM
same,IC50,[12],0.655 nM
same,IC50,[13],21 nM
same,IC50,[14],> 32 nM
same,IC50,[15],0.617 nM
same,IC50,[16],2.43 nM
same,IC50,[17],5 nM
same,IC50,[18],> 32 nM
same,IC50,[19],1.76 nM
same,IC50,[20],5.82 nM
same,IC50,[21],4.3 nM
same,IC50,[22],1.04 nM
same,IC50,[23],6.97 nM
same,IC50,[24],> 32 nM
same,IC50,[25],1.61 nM
same,IC50,[26],7.3 nM
same,IC50,[27],> 32 nM
same,IC50,[28],> 32 nM
same,IC50,[29],1.06 nM
same,IC50,[30],23 nM
same,IC50,[31],1.91 nM
same,IC50,[32],10.6 nM
same,IC50,[33],2.54 nM
same,IC50,[34],> 32 nM
same,IC50,[35],3.47 nM
same,IC50,[36],> 32 nM
same,IC50,[37],1.03 nM
same,IC50,[38],15.6 nM
same,IC50,[39],> 32 nM
same,IC50,[40],8.29 nM
same,IC50,[41],3.13 nM
same,IC50,[42],3.41 nM
same,IC50,[43],7.73 nM
same,IC50,[44],17.5 nM
same,IC50,[45],19.7 nM
same,IC50,[46],1.19 nM
same,IC50,[47],17.5 nM
same,IC50,[48],3.91 nM
same,IC50,[49],2.1 nM
same,IC50,[50],2.15 nM
same,IC50,[51],3.86 nM
